Measured values published in patent US20250195431A1, “LIPID NANOPARTICLES FOR TARGETED DELIVERY OF MRNA” (Trustees of Tufts College, priority 2022, published 2025).

How the values were obtained:
[1] = test system: Firefly luciferase expression; assay: In vivo optimization of Lipid 88 formulations, intramuscular (I.M.) administration, bioluminescence; design: species or system mice; conditions: mouse
Protocol: Various formulations of mRNA/LNPs comprising lipid 88 were tested in vivo, including a plurality of ratios of ionizable lipids to helper lipids, and ratios of RNA to lipids. […] The luc mRNA/LNPs were then given to both adult and neonatal mice via various routes of administration (e.g., intravenously, intramuscularly, or through facial vein). After a period of time post injection (e.g., 6-80 hours), substrates of luciferase were administered to the animals and whole-body imaging was performed using IVIS imaging system.

IFN-γ-secreting T cells = assay: T cell response by ELISPOT after two doses of spike mRNA/LNP; design: species or system mice; conditions: mouse, in vivo
IgG anti-spike antibody = format: in vivo; conditions: mice, I.M., two doses
Exon 6 of Angltl 3 = assay: Base editing with mRNA encoding ABE8e and sgRNA_SA or sgRNA_SD using lipids (306O12B, L88 and L10); conditions: among 306O12B
Angptl3 = assay: ABE8e mRNA/sgRNA/LNPs injected to rodents: base editing and serum biomarkers; conditions: in vivo
Protocol: Significance measured with one way ANOVA. *P<0.05 **P<0.01 ***P<0.001 ****P<0.0001.
Blood taken on day 7. […] Significance measured with one way ANOVA *P<0.05 **P<0.01 ***P<0.001 ****P<0.0001.
Significance measured by one-way ANOVA.
Next LNPs (e.g., ABE8e mRNA/sgRNA/LNPs comprising lipid 88) were injected to rodents. In some cases, one dose of 3 mg/kg LNPs was administered. In some cases, 2 doses of 3 mg/kg LNPs were administered 48 hours apart. […] Significance measured with one way ANOVA. *P<0.05 **P<0.01 ***P<0.001 ****P<0.0001. Seven days post administration of the LNPs, blood samples were collected from treated animals, and various biomarkers were measured, including Angptl3, cholesterol, triglyceride, ALT, AST, and IL-6. […] Significance measured with one way ANOVA *P<0.05 **P<0.01 ***P<0.001 ****P<0.0001. […] Significance measured with one way ANOVA *P<0.05 **P<0.01 ***P<0.001 ****P<0.0001. […] Significance measured by one-way ANOVA. […] Significance measured by one-way ANOVA.

SMILES | delivery of luc mRNA (bioluminescence over time) [1] | T cell response (ELISPOT), comparison of LNPs (IFN-γ-secreting T cells) | anti-spike IgG titer (ELISA), comparison of LNPs (IgG anti-spike antibody) | transfection and editing efficiency (Exon 6 of Angltl 3) | percent of base editing, single dose vs double dose (Angptl3)
CCCCCCC(CCCC)COC(=O)OCCOC(=O)CCN(CCCN(C)CCCN(CCC(=O)OCCOC(=O)OCC(CCCC)CCCCCC)CCC(=O)OCCOC(=O)OCC(CCCC)CCCCCC)CCC(=O)OCCOC(=O)OCC(CCCC)CCCCCC (stereo not drawn) [Lipid 88] | enhanced delivery of luc mRNA to the mice compared with LNPs formulated with 113O12B | highest T cell response | highest anti-spike IgG titer | ~60% | maximal editing was reached with single dose
CCCCCCCCSSCCOC(=O)CCN(CCCN(C)CCCN(CCC(=O)OCC(CC)CCCC)CCC(=O)OCC(CC)CCCC)CCC(=O)OCC(CC)CCCC (stereo not drawn) [Lipid 65] | – | highest T cell response | – | – | –
